Experimental data published in US10829778B2, “Plants having increased tolerance to herbicides” (BASF SE, priority 2013, dated 2020).

Columns and labels:
[1] = system: transgenic Arabidopsis plants overexpressing HPPD (Seq ID: 53); assay: Arabidopsis germination/growth inhibition assay in 48-well plates; type: in vivo, Arabidopsis thaliana; conditions: plant growth IC50 of transgenic divided by wildtype; HPPD (Seq ID: 53) overexpression
Description: (§1) Tolerance to N-heterocyclyl-arylcarboxamides can also be assessed in Arabidopsis. In this case transgenic Arabidopsis thaliana plants are assayed for improved tolerance to N-heterocyclyl-arylcarboxamides in 48-well plates. Seeds are surface sterilized by stirring for 5 min in ethanol+water (70+30 by volume), rinsing one time with ethanol+water (70+30 by volume) and two times with a sterile, deionized water. The seeds are resuspended in 0.1% agar dissolved in water (w/v). Four to five seeds per well are plated on solid nutrient medium consisting of half-strength Murashige Skoog nutrient solution, pH 5.8 (Murashige and Skoog (1962) Physiologia Plantarum 15: 473-497). Compounds are dissolved in dimethylsulfoxid (DMSO) and added to the medium prior solidification (final DMSO concentration 0.1%). Multi well plates are incubated in a growth chamber at 22° C., 75% relative humidity and 110 μmol Phot*m-2*s-1 with 14:10 h light: dark photoperiod. Seven to ten days after seeding growth inhibition is evaluated by comparison to wild type plants. Tolerance factor is calculated by dividing the plant growth IC50 value of transgenic plants containing a HPPD and/or HST sequence by that of wildtype plants.

[2] = system: Arabidopsis wild-type control plants; assay: as above; type: in vivo, Arabidopsis thaliana; conditions: plant growth IC50 relative to wildtype
Description: as §1

[3] = biological target: T1, Hordeum HPPD (SEQ ID NO:2) (Hordeum vulgare, UniProt O48604, A164G/R146V/R147D/R148G); assay: HPPD activity assay (HGA by HPLC), wildtype enzyme; type: biochemical; conditions: Hordeum enzyme
T1 construct: subcloned into a modified pET24D (Novagen) expression vector resulting in N-terminally His-tagged expression constructs; His tag (N); made in house; host or cells: E. coli BL21 (DE3)
T1 sequence (O48604 whole entry R146V/R147D/R148G/A164G): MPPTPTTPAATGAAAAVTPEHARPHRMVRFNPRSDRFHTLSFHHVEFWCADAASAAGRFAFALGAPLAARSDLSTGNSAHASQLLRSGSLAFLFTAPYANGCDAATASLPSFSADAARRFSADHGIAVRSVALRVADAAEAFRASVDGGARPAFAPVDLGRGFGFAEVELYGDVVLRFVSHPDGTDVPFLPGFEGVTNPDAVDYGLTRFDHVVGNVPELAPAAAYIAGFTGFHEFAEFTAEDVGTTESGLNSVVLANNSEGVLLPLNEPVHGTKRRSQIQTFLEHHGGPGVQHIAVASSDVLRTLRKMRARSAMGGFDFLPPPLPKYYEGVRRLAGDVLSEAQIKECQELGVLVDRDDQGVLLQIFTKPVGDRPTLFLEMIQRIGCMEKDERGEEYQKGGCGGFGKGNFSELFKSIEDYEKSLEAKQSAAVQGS
Description: (§2) HPPD produces homogentisic acid and CO2 from 4-hydroxyphenylpyruvate (4-HPP) and O2. The activity assay for HPPD is based on the analysis of homogentisic acid by reversed phase HPLC.
(§3) The assay mixture can contain 150 mM potassium phosphate buffer pH 7.0, 50 mM L-ascorbic acid, 100 μM Catalase (Sigma-Aldrich), 1 μM FeSO4 and 0.2 units of purified HPPD enzyme in a total volume of 505 μl. 1 unit is defined as the amount of enzyme that is required to produce 1 nmol of HGA per minute at 20° C.
(§4) After a preincubation of 30 min the reaction is started by adding 4-HPP to a final concentration of 0.05 mM. The reaction is allowed to proceed for 45 min at room temperature. The reaction is stopped by the addition of 50 μl of 4.5 M phosphoric acid. The sample is filtered using a […] pore size PVDF filtration device.
(§5) 5 μl of the cleared sample is analyzed on an UPLC HSS T3 column (particle size 1.8 μm, dimensions 2.1×50 mm; Waters) by isocratic elution using 90% 20 mM NaH2PO4 pH 2.2, 10% methanol (v/v).
(§6) HGA is detected electrochemically at 750 mV (mode: DC; polarity: positive) and quantified by integrating peak areas (Empower software; Waters).
(§7) Inhibitors are dissolved in DMSO (dimethylsulfoxide) to a concentration of 0.5 mM. From this stock solution serial five-fold dilutions are prepared in DMSO, which are used in the assay. The respective inhibitor solution accounts for 1% of the assay volume. […] Activities are normalized by setting the uninhibited enzyme activity to 100%. IC50 values are calculated using non-linear regression.
(§8) Using methods which are described in the above examples or well known in the art, purified, recombinant wildtype HPPD enzymes are characterized with respect to their kinetic properties and sensitivity towards HPPD inhibiting herbicides. Apparent michaelis constants (Km) and maximal reaction velocities (Vmax) are calculated by non-linear regression with the software GraphPad Prism 5 (GraphPad Software, La Jolla, USA) using a substrate inhibition model. […] Weighted means (by standard error) of Km and IC50 values are calculated from at least three independent experiments.
(§9) Field performance of the HPPD enzyme, which is used as a herbicide tolerance trait may depend not only on its lack of sensitivity towards HPPD inhibiting herbicides but also on its activity. To assess the potential performance of a herbicide tolerance trait a tolerance index (TI) is calculated using the following formula: […]
(§10) Easy comparison and ranking of each trait is enabled by normalizing tolerance indexes on Arabidopsis wild-type HPPD.

[4] = biological target: T2, Arabidopsis HPPD (SEQ ID NO:53) (Arabidopsis thaliana, UniProt P93836); assay: HPPD activity assay (HGA by HPLC), wildtype enzyme; type: biochemical; conditions: Arabidopsis enzyme
T2 construct: His6 (N); made in house; host or cells: E. coli BL21 (DE3)
T2 sequence (P93836 1-445): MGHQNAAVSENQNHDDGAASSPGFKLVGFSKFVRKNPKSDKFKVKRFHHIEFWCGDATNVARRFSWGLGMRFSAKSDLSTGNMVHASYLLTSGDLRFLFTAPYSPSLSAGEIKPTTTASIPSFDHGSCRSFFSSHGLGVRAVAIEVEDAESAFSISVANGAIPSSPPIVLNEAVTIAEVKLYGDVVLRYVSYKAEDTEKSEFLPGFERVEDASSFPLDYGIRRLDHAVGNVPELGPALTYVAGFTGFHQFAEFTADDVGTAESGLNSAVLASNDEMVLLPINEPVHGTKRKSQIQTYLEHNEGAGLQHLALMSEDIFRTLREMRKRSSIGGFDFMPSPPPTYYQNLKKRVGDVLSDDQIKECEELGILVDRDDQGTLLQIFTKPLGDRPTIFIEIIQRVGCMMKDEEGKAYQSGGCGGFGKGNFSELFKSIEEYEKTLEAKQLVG
Description: as §2, §3, §4, §5, §6, §7, §8, §9, §10

[5] = apparent michaelis constant, read-out: Km [μM] (4-HPP)

Compound | Tolerance factor towards Inhibitor 2 [1] | Tolerance factor towards Inhibitor 2 [2] | Km [3, 5] | kcat ([3]; turnover number) | Km [4, 5] | kcat ([4]; turnover number)
COc1nonc1NC(=O)c1ccc(S(C)(=O)=O)c(S(C)(=O)=O)c1C [Inhibitor 2, N-(4-methoxy-1,2,5-oxadiazol-3-yl)-2-methyl-3,4-bis(methylsulfonyl)benzamide] | 12 | 1 |  |  |  | 
O=C(O)C(=O)Cc1ccc(O)cc1 [Inhibitor 4-HPP, 4-hydroxyphenylpyruvate, reference compound] |  |  | 26 µM | 11.5 s⁻¹ | 13 µM | 12.9 s⁻¹
